ChEMBL document CHEMBL4715701, “A new chromanone derivative isolated from Hypericum lissophloeus (Hypericaceae) potentiates GABAA receptor currents in a subunit specific fashion” (Bioorg Med Chem, 2016)
Active and inactive are the calls of the source. The rule behind the calls is not given here.

Columns and labels:
[1] = Ex vivo inhibition of synaptosomal serotonin re-uptake 10 to 100 uM relative to control; assay type: functional, subcellular; conditions: Synaptosome; dose 10-100 µM
[2] = target: GABA-A receptor; alpha-1/beta-3/gamma-2 (Homo sapiens) (UniProt P14867+P18507+P28472); experiment: Allosteric modulation of GABAA alpha1beta3gamma2 (unknown origin) expressed in Xenopus oocytes assessed as potentiation of GABA-induced current response at 3 uM at -80 mV holding potential incubated for 3 mins by two electrode voltage clamp method; assay type: cell-based; conditions: Oocyte, filed as positive allosteric modulator
[3] = target: Gamma-aminobutyric acid receptor subunit alpha-5/beta-2/gamma-2 (Homo sapiens) (UniProt P47870+P18507+P31644); experiment: Allosteric modulation of GABAA alpha5beta2gamma2 (unknown origin) expressed in Xenopus oocytes assessed as potentiation of GABA-induced current response at 3 uM at -80 mV holding potential incubated for 3 mins by two electrode voltage clamp method; assay type: cell-based; conditions: Oocyte, filed as positive allosteric modulator
[4] = target: Gamma-aminobutyric acid receptor subunit alpha-1/beta-2/delta (Homo sapiens) (UniProt P14867+P47870+O14764); experiment: Allosteric modulation of GABAA alpha1beta2delta (unknown origin) expressed in Xenopus oocytes assessed as potentiation of GABA-induced current response at 3 uM at -80 mV holding potential incubated for 3 mins by two electrode voltage clamp method; assay type: cell-based; conditions: Oocyte, filed as positive allosteric modulator
[5] = target: T1, GABA-A receptor; alpha-1/beta-2/gamma-2 (Homo sapiens) (UniProt P14867+P47870+P18507); experiment: Allosteric modulation of GABAA alpha1beta2gamma2 (unknown origin) expressed in Xenopus oocytes assessed as potentiation of GABA-induced current response at 3 uM at -80 mV holding potential incubated for 3 mins by two electrode voltage clamp method relative to control; assay type: cell-based; conditions: Oocyte, filed as positive allosteric modulator
Oocyte [6] = experiment: Allosteric modulation of GABAA alpha1beta2gamma2S280I mutant (unknown origin) expressed in Xenopus oocytes assessed as potentiation of GABA-induced current response at 3 uM at -80 mV holding potential incubated for 3 mins by two electrode voltage clamp method; assay type: cell-based; conditions: Homo sapiens
Oocyte [7] = experiment: Allosteric modulation of GABAA alpha1S269Ibeta2gamma2 mutant (unknown origin) expressed in Xenopus oocytes assessed as potentiation of GABA-induced current response at 3 uM at -80 mV holding potential incubated for 3 mins by two electrode voltage clamp method; assay type: cell-based; conditions: Homo sapiens
Oocyte [8] = experiment: Allosteric modulation of GABAA alpha1S269Ibeta2N265Igamma2S280I mutant (unknown origin) expressed in Xenopus oocytes assessed as potentiation of GABA-induced current response at 3 uM at -80 mV holding potential incubated for 3 mins by two electrode voltage clamp method; assay type: cell-based; conditions: Homo sapiens
[9] = target: T1, GABA-A receptor; alpha-1/beta-2/gamma-2 (Homo sapiens); experiment: Allosteric modulation of GABAA alpha1beta2gamma2 (unknown origin) expressed in Xenopus oocytes assessed as potentiation of GABA-induced current response at 30 uM at -80 mV holding potential incubated for 3 mins by two electrode voltage clamp method; assay type: cell-based; conditions: Oocyte, filed as positive allosteric modulator
Homo sapiens = species on record: Homo sapiens; experiment: Allosteric modulation of GABA(A)/BzR (unknown origin) assessed as potentiation of GABA-induced current response at 3 uM relative to control; conditions: filed as positive allosteric modulator
[10] = target: T1, GABA-A receptor; alpha-1/beta-2/gamma-2 (Homo sapiens); experiment: Allosteric modulation of GABAA alpha1beta2gamma2 (unknown origin) expressed in Xenopus oocytes assessed as potentiation of GABA-induced current response at -80 mV holding potential incubated for 3 mins by two electrode voltage clamp method relative to control; assay type: cell-based; conditions: Oocyte, filed as positive allosteric modulator
[11] = target: T2, GABA-A receptor; alpha-1/beta-2/gamma-2 (Homo sapiens, UniProt P14867+P18507+P47870); experiment: Allosteric modulation of GABAA alpha1beta2gamma2 (unknown origin) expressed in Xenopus oocytes assessed as potentiation of GABA-induced current response at -80 mV holding potential incubated for 3 mins by two electrode voltage clamp method; assay type: cell-based, Oocyte
T2 sequence (P14867 whole entry): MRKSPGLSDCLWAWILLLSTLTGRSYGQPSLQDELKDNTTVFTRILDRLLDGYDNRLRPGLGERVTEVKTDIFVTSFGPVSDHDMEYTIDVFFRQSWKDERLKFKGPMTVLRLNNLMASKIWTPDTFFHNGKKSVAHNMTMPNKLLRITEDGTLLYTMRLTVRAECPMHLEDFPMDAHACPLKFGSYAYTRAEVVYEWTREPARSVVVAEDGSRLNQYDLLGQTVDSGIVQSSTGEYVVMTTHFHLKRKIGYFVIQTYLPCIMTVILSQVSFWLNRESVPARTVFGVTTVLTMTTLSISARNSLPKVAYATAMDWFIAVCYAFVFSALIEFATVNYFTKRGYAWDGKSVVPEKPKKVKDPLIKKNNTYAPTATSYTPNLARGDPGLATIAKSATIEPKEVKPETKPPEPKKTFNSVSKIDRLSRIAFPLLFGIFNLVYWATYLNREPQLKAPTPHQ
T2 sequence (P47870 whole entry): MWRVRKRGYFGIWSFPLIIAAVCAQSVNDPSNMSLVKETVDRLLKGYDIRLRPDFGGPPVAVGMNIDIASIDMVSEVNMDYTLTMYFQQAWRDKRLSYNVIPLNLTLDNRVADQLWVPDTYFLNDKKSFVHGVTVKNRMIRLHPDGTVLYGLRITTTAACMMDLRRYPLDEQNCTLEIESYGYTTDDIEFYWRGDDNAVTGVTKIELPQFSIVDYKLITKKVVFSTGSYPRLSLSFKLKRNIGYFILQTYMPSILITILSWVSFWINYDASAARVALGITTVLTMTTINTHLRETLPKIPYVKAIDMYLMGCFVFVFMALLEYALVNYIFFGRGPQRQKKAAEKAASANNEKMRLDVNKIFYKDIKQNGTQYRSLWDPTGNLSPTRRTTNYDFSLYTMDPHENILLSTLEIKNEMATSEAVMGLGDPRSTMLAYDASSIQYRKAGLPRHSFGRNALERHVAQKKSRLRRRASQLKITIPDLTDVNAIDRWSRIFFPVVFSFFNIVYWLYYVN
T2 sequence (P18507 whole entry): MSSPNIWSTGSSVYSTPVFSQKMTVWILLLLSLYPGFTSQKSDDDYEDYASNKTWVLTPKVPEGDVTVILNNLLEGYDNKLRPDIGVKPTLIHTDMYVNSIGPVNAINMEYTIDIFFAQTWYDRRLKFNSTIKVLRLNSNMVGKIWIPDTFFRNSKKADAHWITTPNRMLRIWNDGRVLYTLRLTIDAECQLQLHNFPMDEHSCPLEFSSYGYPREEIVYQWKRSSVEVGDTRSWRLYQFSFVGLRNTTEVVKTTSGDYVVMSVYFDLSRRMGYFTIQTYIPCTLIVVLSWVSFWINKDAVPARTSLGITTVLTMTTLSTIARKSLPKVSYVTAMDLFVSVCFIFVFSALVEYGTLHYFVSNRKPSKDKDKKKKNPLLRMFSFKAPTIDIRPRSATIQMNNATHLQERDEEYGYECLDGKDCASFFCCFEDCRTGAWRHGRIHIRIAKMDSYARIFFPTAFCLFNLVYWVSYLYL

Oocyte [12] = experiment: Allosteric modulation of GABAA alpha6beta2gamma2 (unknown origin) expressed in Xenopus oocytes assessed as potentiation of GABA-induced current response at 3 uM at -80 mV holding potential incubated for 3 mins by two electrode voltage clamp method; assay type: cell-based; conditions: Homo sapiens, filed as positive allosteric modulator
Oocyte [13] = experiment: Allosteric modulation of GABAA alpha3beta2gamma2 (unknown origin) expressed in Xenopus oocytes assessed as potentiation of GABA-induced current response at 3 uM at -80 mV holding potential incubated for 3 mins by two electrode voltage clamp method; assay type: cell-based; conditions: Homo sapiens, filed as positive allosteric modulator
[14] = target: T1, GABA-A receptor; alpha-1/beta-2/gamma-2 (Homo sapiens); experiment: Allosteric modulation of GABAA alpha1beta2gamma2 (unknown origin) expressed in Xenopus oocytes at 3 uM at -80 mV holding potential incubated for 3 mins by two electrode voltage clamp method relative to control; assay type: cell-based; conditions: Oocyte
[15] = Ex vivo inhibition of synaptosomal serotonin re-uptake 100 uM; assay type: functional, subcellular; conditions: Synaptosome
[16] = target: T1, GABA-A receptor; alpha-1/beta-2/gamma-2 (Homo sapiens); experiment: Allosteric modulation of GABAA alpha1beta2gamma2 (unknown origin) expressed in Xenopus oocytes assessed as potentiation of GABA-induced current response at 0.1 uM at -80 mV holding potential incubated for 3 mins by two electrode voltage clamp method relative to control; assay type: cell-based; conditions: Oocyte, filed as positive allosteric modulator
Oocyte [17] = experiment: Allosteric modulation of GABAA alpha1beta2N265Igamma2 mutant (unknown origin) expressed in Xenopus oocytes assessed as potentiation of GABA-induced current response at 3 uM at -80 mV holding potential incubated for 3 mins by two electrode voltage clamp method; assay type: cell-based; conditions: Homo sapiens
[18] = target: T1, GABA-A receptor; alpha-1/beta-2/gamma-2 (Homo sapiens); experiment: Allosteric modulation of GABAA alpha1beta2gamma2 (unknown origin) expressed in Xenopus oocytes assessed as potentiation of GABA-induced current response at 10 uM at -80 mV holding potential incubated for 3 mins by two electrode voltage clamp method; assay type: cell-based; conditions: Oocyte, filed as positive allosteric modulator
[19] = target: T1, GABA-A receptor; alpha-1/beta-2/gamma-2 (Homo sapiens); experiment: Allosteric modulation of GABAA alpha1beta2gamma2 (unknown origin) expressed in Xenopus oocytes assessed as potentiation of GABA-induced current response at 3 uM at -80 mV holding potential incubated for 3 mins by two electrode voltage clamp method; assay type: cell-based; conditions: Oocyte, filed as positive allosteric modulator
[20] = target: GABA A receptor alpha-1/beta-1/gamma-2 (Homo sapiens) (UniProt P14867+P18507+P18505); experiment: Allosteric modulation of GABAA alpha1beta1gamma2 (unknown origin) expressed in Xenopus oocytes assessed as potentiation of GABA-induced current response at 3 uM at -80 mV holding potential incubated for 3 mins by two electrode voltage clamp method; assay type: cell-based; conditions: Oocyte, filed as positive allosteric modulator
Oocyte [21] = experiment: Allosteric modulation of GABAA alpha2beta2gamma2 (unknown origin) expressed in Xenopus oocytes assessed as potentiation of GABA-induced current response at 3 uM at -80 mV holding potential incubated for 3 mins by two electrode voltage clamp method; assay type: cell-based; conditions: Homo sapiens, filed as positive allosteric modulator

SMILES: CC(C)=CCC[C@]1(C)[C@@H](CC=C(C)C)C[C@]2(CC=C(C)C)C(=O)C(CC=C(C)C)=C(O)[C@@]1(C(=O)C(C)C)C2=O
- inhibition [1]: 100%

SMILES: CC(C)=CCc1c(O)cc2c(c1O)C(=O)[C@H](C)[C@@H](C)O2
- Activity [2]: Active
- Activity [3]: Active
- Activity [4]: Active
- Activity [5]: 3830%
- Activity (Oocyte [6]): inactive
- Activity (Oocyte [7]): inactive
- Activity (Oocyte [8]): inactive
- Activity [9]: Active
- Activity (Homo sapiens): 459%
- Activity [10]: 4430%
- EC50 [11]: 4.5 µM
- Activity (Oocyte [12]): Active
- Activity (Oocyte [13]): Active
- Activity [14]: 0.71%
- inhibition [15]: inactive
- Activity [16]: 60%
- Activity (Oocyte [17]): inactive
- Activity [18]: Active
- Activity [19]: Active
- Activity [20]: Active
- Activity (Oocyte [21]): Active

SMILES: CN1C(=O)CN=C(c2ccccc2)c2cc(Cl)ccc21
- Activity [16]: > 200%
